The EC50 is the midpoint of the concentration-response curve. Lower therefore signals higher potency in that assay.

Our source for the EC50 values is BindingDB's records for doi:10.1007/s00044-010-9428-9 (n/a, 2011).

One test deals with T1, Peroxisome proliferator-activated receptor gamma (Homo sapiens, UniProt P37231).
T1 sequence (P37231 whole entry): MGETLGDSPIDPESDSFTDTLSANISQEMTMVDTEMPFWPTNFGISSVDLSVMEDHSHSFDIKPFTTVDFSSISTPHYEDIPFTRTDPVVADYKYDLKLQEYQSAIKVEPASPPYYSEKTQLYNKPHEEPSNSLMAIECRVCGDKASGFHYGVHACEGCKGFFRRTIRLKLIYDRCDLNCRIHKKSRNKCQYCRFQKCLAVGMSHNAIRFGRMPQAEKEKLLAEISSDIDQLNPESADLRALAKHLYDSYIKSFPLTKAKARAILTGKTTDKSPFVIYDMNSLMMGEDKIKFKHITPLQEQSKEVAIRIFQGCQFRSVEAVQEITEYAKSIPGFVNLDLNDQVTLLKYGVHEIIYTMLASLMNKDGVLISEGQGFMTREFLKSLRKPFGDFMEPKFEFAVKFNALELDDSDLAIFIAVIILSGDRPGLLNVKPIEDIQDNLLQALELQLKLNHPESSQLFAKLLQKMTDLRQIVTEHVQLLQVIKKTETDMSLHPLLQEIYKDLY
Nature of the test: Transactivation activity at PPARgamma (unknown origin).
`C/C(=N\OCCOc1ccc(Cc2sc(=O)[nH]c2O)cc1)c1cccnc1` [5-(4-{2-[1-Pyridin-3-yl-eth-(E)-ylideneaminooxy]-ethoxy}-benzyl)-thiazolidine-2,4-dione] registered an EC50 of 2.8 µM.
Turning to `CC/C(=N\OCCOc1ccc(Cc2sc(=O)[nH]c2O)cc1)c1ccc(-c2ccccc2)cc1` [5-(4-{2-[1-Biphenyl-4-yl-prop-(E)-ylideneaminooxy]-ethoxy}-benzyl)-thiazolidine-2,4-dione], the EC50 was 1.6 µM.
`C/C(=N\OCCOc1ccc(Cc2sc(=O)[nH]c2O)cc1)c1ccc(-c2ccncc2)cc1` [5-(4-{2-[1-(4-Pyridin-4-yl-phenyl)-eth-(E)-ylideneaminooxy]-ethoxy}-benzyl)-thiazolidine-2,4-dione] returned an EC50 of 1.6 µM. This lies in the single-digit micromolar range.
Take `C/C(=N\OCCOc1ccc(Cc2sc(=O)[nH]c2O)cc1)c1ccccn1` [5-(4-{2-[1-Pyridin-2-yl-eth-(E)-ylideneaminooxy]-ethoxy}-benzyl)-thiazolidine-2,4-dione]: the EC50 is 2.8 µM.

The target in a further test is T1, Peroxisome proliferator-activated receptor gamma. The test is described as follows: Transactivation activity at Homo sapiens (human) PPARgamma.
As to `CCCc1cc(Oc2ccccc2)ccc1OCCCCOc1ccc(-c2sc(=O)[nH]c2O)cc1` [5-{4-[4-(4-Phenoxy-2-propyl-phenoxy)-butoxy]-phenyl}-thiazolidine-2,4-dione], the response was half-maximal at 1 µM (EC50).
`O=c1[nH]c(O)c(Cc2ccc3c(c2)CC[C@H](Cc2ccccc2)O3)s1` [5-((R)-2-Benzyl-chroman-6-ylmethyl)-thiazolidine-2,4-dione] showed an EC50 of 1 µM. This lies in the single-digit micromolar range.
